Results taken from ChEMBL document CHEMBL1150953, “Novel betaines from the marine sponge Agelas dispar” (1998).
≈ marks a conversion by molar mass, not a printed value.

What was measured:
Bacillus subtilis = assay: Antibacterial activity against Bacillus subtilis ATCC 6633 after 16 hrs; assay type: functional; conditions: ATCC 6633, 16 h
Staphylococcus aureus = assay: Antibacterial activity against Staphylococcus aureus ATCC 6538 after 16 hrs; assay type: functional; conditions: ATCC 6538, 16 h

Row | MIC (Bacillus subtilis) | MIC (Staphylococcus aureus) | Compound
1 | 2.5 µg/mL (≈ 14.8 µM) | 8.5 µg/mL (≈ 50.2 µM) | Cn1c(CC(=O)[O-])c[n+](C)c1N [AMINOZOOANEMONIN]
2 | 3.5 µg/mL (≈ 20.9 µM) | 5 µg/mL (≈ 29.9 µM) | O=C([O-])c1ccc[n+](CCO)c1 [PYRIDINEBETAINE A]
